According to ChEMBL document CHEMBL4834431, “Design of Dimeric Bile Acid Derivatives as Potent and Selective Human NTCP Inhibitors” (J Med Chem, 2021):

Experiments:
[1] = system: Hepatitis B virus; experiment: Antiviral activity against HBV infected in human HepG2-NTCP cells assessed as reduction in HBeAg secretion incubated for 24 hrs followed replacement with fresh medium and measured at day 5 post infection by ELISA; assay type: functional, organism-based
[2] = Stability in mouse liver microsomes assessed as half life at 1 uM preincubated for 5 mins followed by NADPH addition and measured upto 60 mins by LC-MS analysis; assay type: ADME, Microsome; settings: time 65 min
[3] = Stability in mouse liver microsomes assessed as intrinsic clearance at 1 uM preincubated for 5 mins followed by NADPH addition and measured upto 60 mins by LC-MS analysis; assay type: ADME, Microsome; settings: time 65 min, read-out: CLH
[4] = biological target: T1, Hepatic sodium/bile acid cotransporter (Homo sapiens, UniProt Q14973); experiment: Inhibition of human NTCP-mediated [3H]-TCA uptake expressed in human HepG2 cells pretreated for 2 hrs followed by [3H]-TCA addition in absence of FBS; assay type: cell-based
T1 sequence (Q14973 whole entry): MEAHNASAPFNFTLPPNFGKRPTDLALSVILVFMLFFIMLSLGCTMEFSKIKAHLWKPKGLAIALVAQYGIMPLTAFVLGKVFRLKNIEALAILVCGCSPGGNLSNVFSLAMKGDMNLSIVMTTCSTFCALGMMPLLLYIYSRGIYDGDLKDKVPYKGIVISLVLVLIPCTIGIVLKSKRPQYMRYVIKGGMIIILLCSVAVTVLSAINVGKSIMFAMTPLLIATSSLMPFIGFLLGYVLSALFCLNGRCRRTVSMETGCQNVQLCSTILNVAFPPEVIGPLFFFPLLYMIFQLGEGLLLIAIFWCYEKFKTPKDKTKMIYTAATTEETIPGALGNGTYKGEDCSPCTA

[5] = biological target: T1, Hepatic sodium/bile acid cotransporter; experiment: Inhibition of human NTCP-mediated [3H]-TCA uptake expressed in human HepG2 cells in presence of 20 % FBS; assay type: cell-based
[6] = biological target: T1, Hepatic sodium/bile acid cotransporter; experiment: Inhibition of human NTCP-mediated [3H]-TCA uptake expressed in human HepG2 cells in presence of 50 % FBS; assay type: cell-based

C[C@H](CCC(=O)N[C@@H]1CC[C@@]2(C)[C@@H](C1)C[C@H](O)[C@@H]1[C@@H]2CC[C@]2(C)[C@@H]([C@H](C)CCC(=O)NCCS(=O)(=O)O)CC[C@@H]12)[C@H]1CC[C@H]2[C@@H]3[C@@H](O)C[C@@H]4C[C@H](O)CC[C@]4(C)[C@H]3CC[C@]12C
IC50 [1]: 5 nM | half-life at 1 µM [2]: 42 s | microsomal CLint at 1 µM [3]: 994 µL/min/mg | IC50 [4]: 0.3 nM

C[C@@H]1CCC(=O)NC(C(=O)O)CNC(=O)CC[C@@H](C)[C@H]2CC[C@H]3[C@@H]4[C@@H](O)C[C@@H]5C[C@@H](CC[C@]5(C)[C@H]4CC[C@]23C)n2cc(nn2)CO[C@@H]2CC[C@@]3(C)[C@@H](C2)C[C@H](O)[C@@H]2[C@@H]3CC[C@]3(C)[C@@H]1CC[C@@H]23 (stereo not given in full)
IC50 [1]: 93 nM | IC50 [5]: 109 nM | IC50 [6]: 167 nM | IC50 [4]: 17.9 nM

C[C@@H]1CCC(=O)NCCNC(=O)CC[C@@H](C)[C@H]2CC[C@H]3[C@@H]4[C@@H](O)C[C@@H]5C[C@@H](CC[C@]5(C)[C@H]4CC[C@]23C)n2cc(nn2)CO[C@@H]2CC[C@@]3(C)[C@@H](C2)C[C@H](O)[C@@H]2[C@@H]3CC[C@]3(C)[C@@H]1CC[C@@H]23
IC50 [1]: 81 nM | IC50 [4]: 37.5 nM
